Data published in patent US20240374655A1, “INTESTINAL MICROBIOTA AND GVHD” (Memorial Sloan-Kettering Cancer Center, priority 2014, published 2024).
Entries after “also recorded” stand apart in the source; their conditions may differ. Blank lines part the entries; values can stand above or below the molecule they belong to.

Experiments:
[1] = test system: murine Blautia; test: In vitro suppression of Blautia by L. johnsonii / Lacto-conditioned media and rescue by reducing agents; assay type: cell-based; conditions: reducing agent added in the presence of Lacto-conditioned media
Experimental: A) Murine Blautia was grown in peptone yeast glucose broth either alone, or with murine L. johnsonii in conditions of limited media or ample media, and viable colonies were quantified. B) L. johnsonii was allowed to grow in media to plateau phase, then sterile filtered to generate Lacto-conditioned media. Effects of Lacto-conditioned media on the viability of L. johnsonii and murine Blautia were evaluated when mixed with fresh media in a 1:1 ratio. Effects of the addition of 3 reducing agents indicated was also evaluated.
From studying the effects of calorie restriction on intestinal microbiota composition it was observed that obligate anaerobes (Clostridia, Bacteroidetes) are reduced in abundance while facultative anaerobes (Lactobacillos, Proteobacteria) expand. Production of free radicals by E. coli in the setting of starvation has been described previously (Saby S, et al. Appl Environ Microbiol. 1999; 5600-5603). Experiments were designed to examine in vitro if Lactobacillus johnsonii could suppress the growth of our murine Blautia isolate under starvation conditions, and to further investigate if production of free radicals could be a contributing factor. […] The effects of media that had supported the growth of L. johnsonii to plateau phase were further investigated following sterile filtration. […] It was then examined if reducing agents could rescue Blautia from Lacto-conditioned-media-mediated suppression.

[2] = Antibiotic treatment in MHC-matched minor antigen-mismatched allo-HSCT GVHD model (C57BL/6 into 129S1); assay type: in vivo; conditions: mouse, in vivo
Experimental: FIGS. 16A-16J Imipenem treatment, compared to aztreonam treatment, suppresses anaerobic commensals and elevates GVHD severity in mice. (A) Flora composition analysis using 16S rRNA sequencing prior to and after treatment with the indicated antibiotics in healthy C57BL/6 mice. Mice were treated with subcutaneous (SC) injections of each antibiotic twice a day for two days (500 mg/kg for pip/tazo and 100 mg/kg for others) and stool samples were collected the following day. Values represent mean±SEM (n=3-4). *, P<0.05; **, P<0.01; ****, P<0.0001. Data are representative of two independent experiments. (B to J) Lethally irradiated 129S1 recipients were transplanted with MHC matched C57BL/6 T-cell depleted bone marrow (TCD-BM) cells and 1×10^6 C57BL/6 T cells. Control mice received TCD-BM only. Recipients were treated with imipenem or aztreonam (100 mg/kg, SC, 3 times a week from day 10 to day 24 following allo-HSCT). (B) Comparison of overall survival, with combined data from three independent experiments (n=15-43). ****, P<0.0001. (C) Mice with GVHD treated with antibiotics were sacrificed on day 21 and GVHD histology scores in target organs were quantified by a blinded pathologist. Data are combined from three independent experiments (n=5-20). *, P<0.05. (D) Stool samples obtained from mice treated with imipenem or aztreonam similarly to those in B were collected on day 21 and analyzed by 16S rRNA gene sequencing, followed by principal coordinate analysis of weighted and normalized UniFrac distances. (E and F) Differential taxonomic abundance between aztreonam treated and imipenem treated recipients was analyzed by (E) linear discriminate analysis coupled with effect size measurements (LEfSe) and (F) by LEfSe projected as a cladogram. […] (I) Stool samples collected from mice with GVHD treated with antibiotics were collected on day 21, and evaluated by metagenomic shotgun sequence analysis, comparison of bacterial species abundance determined by taxonomy. […] (J) Principal component analysis of quantification of sequence reads from KEGG gene orthologs comparing samples from mice treated with aztreonam and imipenem.
(A to G) Lethally irradiated 129S1 recipients were transplanted with C57BL/6 TCD-BM cells with 1×10^6 C57BL/6 T cells. […] (A) Colonic lamina propria-infiltrating leukocytes from recipients were analyzed on day 21 by flow cytometry. […] (C) Lamina propria-infiltrating leukocytes from the colon on day 21 were enriched for CD11b and CD11e simultaneously using a mixture of magnetic beads and IL-23 transcripts were quantified by real time PCR. […] (D) Immunofluorescent staining was used to quantify pSTAT3, CD3, and DAPI positive cells in colonic tissue collected on day 21. […]

[3] = test system: Clostridiales; test: Change in Clostridiales abundance in paired stool samples of allo-HSCT patients before and after starting antibiotics; assay type: in vivo, human; conditions: before vs after starting the antibiotic; compared to aztreonam
Source text: (A) A retrospective cohort was identified of 283 adult patients who received non-T cell depleted allo-HSCT at our center from 1994 to 2013 and received antibiotics for neutropenic fever. Patients were stratified by exposure to antibiotics with significant activity against anaerobes. Outcomes indicated were depicted by Kaplan-Meier plots and curves compared by the logrank test. (B to G) Six representative clinical cases with time courses depicted of fecal microbiota composition and administration of antibiotic treatments during the course of allo-HSCT. […] (H) Change in abundance of Clostridiales in paired fecal samples from patients undergoing allo-HSCT collected prior to and following treatment with the indicated antibiotics.
For each stool specimen, DNA was purified using a phenol-chloroform extraction technique with mechanical disruption (bead-beating) based on a previously described protocol (60). Samples were analyzed using the 454 GS FLX Titanium platform to sequence the V1-V3 region of the bacterial 16S rRNA gene or were alternatively analyzed using the Illumina MiSeq platform to sequence the V4-V5 region of the 16S rRNA gene. Sequence data were compiled and processed using mothur version 1.34 (61), screened and filtered for quality (62). Operational taxonomic units (OTUs) were classified to the species level (63) using a modified form of the Greengenes reference database (64). Principal component analysis was performed upon a weighted and normalized Unifrac (65) distance matrix of OTU abundance in R software. Data from this study has been stored in the NCBI Sequence Read Archive (see url: www.ncbi.nlm.nih.gov/sra).
HSCT patients were on intestinal bacterial composition. In 2009, our center began to prospectively collect weekly stool samples from patients undergoing allo-HSCT. From this specimen bank, we identified paired stool samples collected from patients prior to as well as following initiation of specific antibiotics during the course of allo-HSCT. […]

[4] = test system: intestinal microbiota (Clostridiales, Enterococcus); test: Flora composition (16S rRNA sequencing of stool) after antibiotic treatment of healthy mice; assay type: in vivo, C57BL/6 mice; conditions: 100 mg/kg SC twice a day for two days
Experimental: FIGS. 16A-16J Imipenem treatment, compared to aztreonam treatment, suppresses anaerobic commensals and elevates GVHD severity in mice. (A) Flora composition analysis using 16S rRNA sequencing prior to and after treatment with the indicated antibiotics in healthy C57BL/6 mice. Mice were treated with subcutaneous (SC) injections of each antibiotic twice a day for two days (500 mg/kg for pip/tazo and 100 mg/kg for others) and stool samples were collected the following day. Values represent mean±SEM (n=3-4). *, P<0.05; **, P<0.01; ****, P<0.0001. Data are representative of two independent experiments. (B to J) Lethally irradiated 129S1 recipients were transplanted with MHC matched C57BL/6 T-cell depleted bone marrow (TCD-BM) cells and 1×10^6 C57BL/6 T cells. Control mice received TCD-BM only. Recipients were treated with imipenem or aztreonam (100 mg/kg, SC, 3 times a week from day 10 to day 24 following allo-HSCT). (B) Comparison of overall survival, with combined data from three independent experiments (n=15-43). ****, P<0.0001. (C) Mice with GVHD treated with antibiotics were sacrificed on day 21 and GVHD histology scores in target organs were quantified by a blinded pathologist. Data are combined from three independent experiments (n=5-20). *, P<0.05. (D) Stool samples obtained from mice treated with imipenem or aztreonam similarly to those in B were collected on day 21 and analyzed by 16S rRNA gene sequencing, followed by principal coordinate analysis of weighted and normalized UniFrac distances. (E and F) Differential taxonomic abundance between aztreonam treated and imipenem treated recipients was analyzed by (E) linear discriminate analysis coupled with effect size measurements (LEfSe) and (F) by LEfSe projected as a cladogram. Data are representative from more than five independent experiments in D to F. (G and H) Comparisons of bacterial abundance at the phylogenetic levels of (G) order, and (H) genus are shown. Data are combined from 6 independent experiments (n=32-36). ***, P<0.001. (I) Stool samples collected from mice with GVHD treated with antibiotics were collected on day 21, and evaluated by metagenomic shotgun sequence analysis, comparison of bacterial species abundance determined by taxonomy. Numbers 1 through 6 along the x-axis represent the individual subjects. (J) Principal component analysis of quantification of sequence reads from KEGG gene orthologs comparing samples from mice treated with aztreonam and imipenem.
To further explore causality and mechanisms of the effects of antibiotics with anaerobic activity on GVHD, we turned to experiments in mice. […] Mice were treated by subcutaneous (SC) injections of each antibiotic twice a day for two days (500 mg/kg for pip/tazo and 100 mg/kg for others) and stool samples were collected, followed by 16S rRNA gene amplification and sequence analysis.

[5] = test system: Blautia isolate of C57BL/6 origin; test: Sugar fermentation by bacterial isolate (pH and optical density in media lacking glucose); assay type: cell-based
Experimental: (§1) Utilizing Blautia isolate of C57BL/6 origin, as well as a Lactobacillus johnsonii of C57BL/6 origin, the ability of these bacteria to ferment a variety of sugars was evaluated using pH and optical density to evaluate bacterial growth in media lacking glucose. Lactobacillus johnsonii was evaluated because this bacteria expands in the setting of calorie restriction at the expense of Clostridia, and is thus presumably a direct competitor for nutrients in the murine intestine.

[6] = test system: Lactobacillus johnsonii of C57BL/6 origin; test: as above; assay type: cell-based
Experimental: as §1

[7] = Sugars in drinking water to augment Blautia and mitigate experimental GVHD; assay type: in vivo, C57BL/6 mice; conditions: for GVHD severity / survival of mice with GVHD: 10 g/L in drinking water beginning one week before BMT
Experimental: Left: Intestinal abundance of Blautia was evaluated on day 14 after BMT, results of a single experiment. Right: Mice were followed for development of clinical GVHD (combined results of 2 experiments).
Mice were followed for development of clinical GVHD (combined results of 3 experiments).
C57BL/6 mice were inoculated orally with a murine Blautia isolate known to ferment xylose. Some mice were then administered xylose in the drinking water (10 g/L) beginning 7 days prior to BMT with B10.BR BM and T cells.

[8] = test system: 17 strains from a clostridial mix; test: Growth of strains from a clostridial mix in BHI media without glucose with added sugars; assay type: cell-based, Clostridia; conditions: BHI media without glucose plus sugar
Source text: Glucose gave the best results and was able to support the growth of 10 of the total 17 strains. Glucose, however would have limited benefit since it likely doesn't give a selective advantage to the beneficial bacteria. Raffinose was able to support 5 strains, while cellobiose appeared to support 4 strains not supported by raffinose. In one embodiment, therefore, a mixture of raffinose and cellobiose can be administered to a subject to provide support for at least a portion of the beneficial bacteria.

Structure (SMILES): O=C([O-])CS.[Na+] [sodium thioglycolate]
Rescue of Blautia growth from Lacto-conditioned-media-mediated suppression [1]: able to support Blautia growth

Structure (SMILES): N[C@@H](CS)C(=O)O [L-cysteine]
Rescue of Blautia growth from Lacto-conditioned-media-mediated suppression [1]: able to support Blautia growth

Bacteria past the colonic epithelial barrier [2]: not seen
Structure (SMILES): C[C@H]1[C@H](NC(=O)/C(=N\OC(C)(C)C(=O)O)c2csc(N)n2)C(=O)N1S(=O)(=O)O [aztreonam]
Change in Clostridiales abundance in stool of patients [3]: relative preservation of Clostridiales abundances
Abundance of Clostridiales in stool [4]: spared Clostridiales

Structure (SMILES): O=C1O[C@H]([C@@H](O)CO)C(O)=C1O [ascorbic acid]
Rescue of Blautia growth from Lacto-conditioned-media-mediated suppression [1]: able to support Blautia growth

Structure (SMILES): C[C@H](O)[C@H](O)[C@@H](O)[C@@H](O)C=O [rhamnose]
Fermentation of sugar by Blautia [5]: fermented by Blautia
Fermentation of sugar by Lactobacillus [6]: not by Lactobacillus

Structure (SMILES): O=C[C@H](O)[C@@H](O)[C@H](O)CO [xylose]
GVHD severity / survival of mice with GVHD [7]: improved survival; also recorded: reduced GVHD severity
Intestinal abundance of Blautia ([7]; 10 g/L in drinking water from 7 days before BMT, day 14 after BMT, 16S deep sequencing): expansion of Blautia; also recorded: increased abundance
Fermentation of sugar by Blautia [5]: fermented by Blautia
Fermentation of sugar by Lactobacillus [6]: not by Lactobacillus

Structure (SMILES): OC[C@H]1O[C@H](OC[C@H]2O[C@H](O[C@]3(CO)O[C@H](CO)[C@@H](O)[C@@H]3O)[C@H](O)[C@@H](O)[C@@H]2O)[C@H](O)[C@@H](O)[C@H]1O [raffinose]
GVHD severity / survival of mice with GVHD [7]: reduces GVHD severity
Number of strains whose growth is supported ([8]; of the total 17 strains): 5 strains

Structure (SMILES): O=C[C@H](O)[C@@H](O)[C@H](O[C@@H]1O[C@H](CO)[C@@H](O)[C@H](O)[C@H]1O)[C@H](O)CO [cellobiose]
Number of strains supported that are not supported by raffinose [8]: 4 strains

Structure (SMILES): CO/N=C(\C(=O)N[C@@H]1C(=O)N2C(C(=O)[O-])=C(C[N+]3(C)CCCC3)CS[C@H]12)c1csc(N)n1 [cefepime]
Abundance of Clostridiales in stool [4]: spared Clostridiales
